Measured values: PubChem BioAssay AID1963448 (Molecular Pharmacology Branch, DTP, NCI, 2024)

Tested on: 616215-338-R-J1-PDC complex spheroid growth, % test/control
Assay: Anticancer human tumor 616215-338-R-J1-PDC patient-derived colon adenocarcinoma cell line growth inhibition [Asc]
Conditions: for IC50: curve of first compound; for viability, T/C: stronger effect = lower value
How it was run: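 Complex spheroids combining tumor cells with HUVEC endothelial cells and human MSCs, at 37 degrees C, 5% CO2; agents tested alone or combined, half-log dilutions from at or near clinical Cmax, or 10 microM if Cmax unknown.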

[1] = second compound 0.00316 µM, first compound 0.0316 µM
[2] = second compound 0.00316 µM, first compound 0.1 µM
[3] = second compound 0.00316 µM, first compound 0.316 µM
[4] = second compound 0.00316 µM, first compound 1 µM
[5] = second compound 0.00316 µM, first compound 3.16 µM
[6] = second compound 0.00316 µM, first compound 10 µM
[7] = second compound 0.01 µM, first compound 0.0316 µM
[8] = second compound 0.01 µM, first compound 0.1 µM
[9] = second compound 0.01 µM, first compound 0.316 µM
[10] = second compound 0.01 µM, first compound 1 µM
[11] = second compound 0.01 µM, first compound 3.16 µM
[12] = second compound 0.01 µM, first compound 10 µM
[13] = second compound 0.0316 µM, first compound 0.0316 µM
[14] = second compound 0.0316 µM, first compound 0.1 µM
[15] = second compound 0.0316 µM, first compound 0.316 µM
[16] = second compound 0.0316 µM, first compound 1 µM
[17] = second compound 0.0316 µM, first compound 3.16 µM
[18] = second compound 0.0316 µM, first compound 10 µM
[19] = second compound 0.1 µM, first compound 0.0316 µM
[20] = second compound 0.1 µM, first compound 0.1 µM
[21] = second compound 0.1 µM, first compound 0.316 µM
[22] = second compound 0.1 µM, first compound 1 µM
[23] = second compound 0.1 µM, first compound 3.16 µM
[24] = second compound 0.1 µM, first compound 10 µM
[25] = second compound 0.316 µM, first compound 0.0316 µM
[26] = second compound 0.316 µM, first compound 0.1 µM
[27] = second compound 0.316 µM, first compound 0.316 µM
[28] = second compound 0.316 µM, first compound 1 µM
[29] = second compound 0.316 µM, first compound 3.16 µM
[30] = second compound 0.316 µM, first compound 10 µM
[31] = second compound 1 µM, first compound 0.0316 µM
[32] = second compound 1 µM, first compound 0.1 µM
[33] = second compound 1 µM, first compound 0.316 µM
[34] = second compound 1 µM, first compound 1 µM
[35] = second compound 1 µM, first compound 3.16 µM
[36] = second compound 1 µM, first compound 10 µM
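Further: spheroids exposed to agents for seven days before readout.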
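Wherever viability, T/C is given: 100% = DMSO vehicle control viability.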

C#Cc1c(F)ccc2cc(O)cc(-c3ncc4c(N5CC6CCC(C5)N6)nc(OCC56CCCN5CC(F)C6)nc4c3F)c12 (stereo unspecified) + CNC(C)C(=O)NC1CN(S(=O)(=O)c2cccc(S(=O)(=O)N3CCC4CCC(C(=O)NC(c5ccccc5)c5ccccc5)N4C(=O)C(NC(=O)C(C)NC)C3)c2)CCC2CCC(C(=O)NC(c3ccccc3)c3ccccc3)N2C1=O
IC50 (second compound 0.00316 µM): 2280 nM | IC50 (second compound 0.01 µM): 2490 nM | IC50 (second compound 0.0316 µM): 3760 nM | IC50 (second compound 0.1 µM): 2330 nM | IC50 (second compound 0.316 µM): 2720 nM | IC50 (second compound 1 µM): 2100 nM | viability, T/C [1]: 94.8% | viability, T/C [2]: 104% | viability, T/C [3]: 95.6% | viability, T/C [4]: 100% | viability, T/C [5]: 30.6% | viability, T/C [6]: 6.11% | viability, T/C [7]: 101% | viability, T/C [8]: 99.3% | viability, T/C [9]: 104% | viability, T/C [10]: 97.6% | viability, T/C [11]: 37.4% | viability, T/C [12]: 5.11% | viability, T/C [13]: 100% | viability, T/C [14]: 95.7% | viability, T/C [15]: 99.9% | viability, T/C [16]: 104% | viability, T/C [17]: 57.1% | viability, T/C [18]: 9.6% | viability, T/C [19]: 90.9% | viability, T/C [20]: 102% | viability, T/C [21]: 105% | viability, T/C [22]: 89.4% | viability, T/C [23]: 35.7% | viability, T/C [24]: 4.68% | viability, T/C [25]: 98.7% | viability, T/C [26]: 102% | viability, T/C [27]: 109% | viability, T/C [28]: 89.9% | viability, T/C [29]: 44.2% | viability, T/C [30]: 6.83% | viability, T/C [31]: 106% | viability, T/C [32]: 86% | viability, T/C [33]: 102% | viability, T/C [34]: 104% | viability, T/C [35]: 22.4% | viability, T/C [36]: 3.39%

C=C(F)C(=O)N1CCN(c2nc(OCC3CCCN3C)nc3c2CCN(c2cccc4cccc(Cl)c24)C3)CC1CC#N (stereo unspecified) + CNC(C)C(=O)NC1CN(S(=O)(=O)c2cccc(S(=O)(=O)N3CCC4CCC(C(=O)NC(c5ccccc5)c5ccccc5)N4C(=O)C(NC(=O)C(C)NC)C3)c2)CCC2CCC(C(=O)NC(c3ccccc3)c3ccccc3)N2C1=O
IC50 (second compound 0.00316 µM): 175 nM | IC50 (second compound 0.01 µM): 162 nM | IC50 (second compound 0.0316 µM): 155 nM | IC50 (second compound 0.1 µM): 52.6 nM | IC50 (second compound 0.316 µM): 243 nM | IC50 (second compound 1 µM): 131 nM | viability, T/C [1]: 61% | viability, T/C [2]: 53.5% | viability, T/C [3]: 43.7% | viability, T/C [4]: 23.7% | viability, T/C [5]: 1.09% | viability, T/C [6]: 0.18% | viability, T/C [7]: 64.8% | viability, T/C [8]: 53.1% | viability, T/C [9]: 41.4% | viability, T/C [10]: 26.3% | viability, T/C [11]: 0.82% | viability, T/C [12]: 2.38% | viability, T/C [13]: 65.3% | viability, T/C [14]: 43.8% | viability, T/C [15]: 47.5% | viability, T/C [16]: 21.2% | viability, T/C [17]: 0.88% | viability, T/C [18]: 0.16% | viability, T/C [19]: 54.9% | viability, T/C [20]: 43.8% | viability, T/C [21]: 39.4% | viability, T/C [22]: 23.5% | viability, T/C [23]: 0.85% | viability, T/C [24]: 1.36% | viability, T/C [25]: 56.5% | viability, T/C [26]: 58.4% | viability, T/C [27]: 47.7% | viability, T/C [28]: 13.9% | viability, T/C [29]: 1.16% | viability, T/C [30]: 0.18% | viability, T/C [31]: 60% | viability, T/C [32]: 52% | viability, T/C [33]: 38.8% | viability, T/C [34]: 15.7% | viability, T/C [35]: 1.42% | viability, T/C [36]: 0.21%

CCN1C(C(=O)NC23CCC(C(=O)O)(CC2)CC3)C(c2cccc(Cl)c2F)C2(C(=O)Nc3cc(Cl)ccc32)C12CCCCC2 (stereo unspecified) + CNC(C)C(=O)NC1CN(S(=O)(=O)c2cccc(S(=O)(=O)N3CCC4CCC(C(=O)NC(c5ccccc5)c5ccccc5)N4C(=O)C(NC(=O)C(C)NC)C3)c2)CCC2CCC(C(=O)NC(c3ccccc3)c3ccccc3)N2C1=O
IC50 (second compound 0.00316 µM): 87.4 nM | IC50 (second compound 0.01 µM): 86.5 nM | IC50 (second compound 0.0316 µM): 175 nM | IC50 (second compound 0.1 µM): 93.1 nM | IC50 (second compound 0.316 µM): 80.6 nM | IC50 (second compound 1 µM): 88.2 nM | viability, T/C (second compound 0.00316 µM, first compound 0.00949 µM): 109% | viability, T/C (second compound 0.00316 µM, first compound 0.03 µM): 108% | viability, T/C (second compound 0.00316 µM, first compound 0.0949 µM): 41.7% | viability, T/C (second compound 0.00316 µM, first compound 0.3 µM): 45.3% | viability, T/C (second compound 0.00316 µM, first compound 0.949 µM): 49.6% | viability, T/C (second compound 0.00316 µM, first compound 3 µM): 45.4% | viability, T/C (second compound 0.01 µM, first compound 0.00949 µM): 108% | viability, T/C (second compound 0.01 µM, first compound 0.03 µM): 104% | viability, T/C (second compound 0.01 µM, first compound 0.0949 µM): 41.6% | viability, T/C (second compound 0.01 µM, first compound 0.3 µM): 44% | viability, T/C (second compound 0.01 µM, first compound 0.949 µM): 54.3% | viability, T/C (second compound 0.01 µM, first compound 3 µM): 41.1% | viability, T/C (second compound 0.0316 µM, first compound 0.00949 µM): 99.2% | viability, T/C (second compound 0.0316 µM, first compound 0.03 µM): 101% | viability, T/C (second compound 0.0316 µM, first compound 0.0949 µM): 53.5% | viability, T/C (second compound 0.0316 µM, first compound 0.3 µM): 50% | viability, T/C (second compound 0.0316 µM, first compound 0.949 µM): 48.7% | viability, T/C (second compound 0.0316 µM, first compound 3 µM): 42% | viability, T/C (second compound 0.1 µM, first compound 0.00949 µM): 111% | viability, T/C (second compound 0.1 µM, first compound 0.03 µM): 78.2% | viability, T/C (second compound 0.1 µM, first compound 0.0949 µM): 51.1% | viability, T/C (second compound 0.1 µM, first compound 0.3 µM): 36.3% | viability, T/C (second compound 0.1 µM, first compound 0.949 µM): 52.8% | viability, T/C (second compound 0.1 µM, first compound 3 µM): 41.1% | viability, T/C (second compound 0.316 µM, first compound 0.00949 µM): 97.5% | viability, T/C (second compound 0.316 µM, first compound 0.03 µM): 89.5% | viability, T/C (second compound 0.316 µM, first compound 0.0949 µM): 43.4% | viability, T/C (second compound 0.316 µM, first compound 0.3 µM): 41.2% | viability, T/C (second compound 0.316 µM, first compound 0.949 µM): 44.9% | viability, T/C (second compound 0.316 µM, first compound 3 µM): 44.1% | viability, T/C (second compound 1 µM, first compound 0.00949 µM): 89.8% | viability, T/C (second compound 1 µM, first compound 0.03 µM): 83.4% | viability, T/C (second compound 1 µM, first compound 0.0949 µM): 47.5% | viability, T/C (second compound 1 µM, first compound 0.3 µM): 43.5% | viability, T/C (second compound 1 µM, first compound 0.949 µM): 60.1% | viability, T/C (second compound 1 µM, first compound 3 µM): 39.5%
